Measured values from ChEMBL document CHEMBL4765292, “Flexible diaminodihydrotriazine inhibitors of Plasmodium falciparum dihydrofolate reductase: Binding strengths, modes of binding and their antimalarial activities” (Eur J Med Chem, 2020).

Tests used:
[1] = tested on: Vero; experiment: Cytotoxicity against African green monkey Vero cells assessed as reduction in cell viability incubated for 72 hrs by SRB assay; type: cell-based; conditions: Chlorocebus sabaeus
[2] = Inhibition of Plasmodium falciparum DHFR N51I/C59R/S108N/I164L mutant expressed in Escherichia coli BL21 using DHF as substrate by spectrophotometric analysis
[3] = Inhibition of Plasmodium falciparum DHFR C59R/S108N/I164L mutant expressed in Escherichia coli BL21 using DHF as substrate by spectrophotometric analysis
[4] = tested on: DHFR (human against Plasmodium falciparum DHFR); experiment: Selectivity index, ratio of Ki for human DHFR expressed in Escherichia coli BL21 to Ki for Plasmodium falciparum DHFR expressed in Escherichia coli BL21; type: toxicity; conditions: read-out: Ratio Ki
[5] = Inhibition of Plasmodium falciparum DHFR A16V/S108T mutant expressed in Escherichia coli BL21 using DHF as substrate by spectrophotometric analysis
[6] = tested on: Plasmodium falciparum; experiment: Antimalarial activity against Plasmodium falciparum K1CB1 harboring DHFR […] mutant infected in human erythrocytes assessed as reduction in [3H]-hypoxanthine incorporation pretreated for 20 hrs followed by [3H]-hypoxanthine addition measured after 20 hrs by radioactivity method; type: functional, organism-based; conditions: K1CB1, Erythrocyte
[7] = tested on: DHFR (human against Plasmodium falciparum DHFR double mutant); experiment: Selectivity index, ratio of Ki for human DHFR expressed in Escherichia coli BL21 to Ki for Plasmodium falciparum DHFR double mutant expressed in Escherichia coli BL21; type: toxicity; conditions: read-out: Ratio Ki
[8] = tested on: DHFR (human against Plasmodium falciparum DHFR N51I/C59R/S108N/I164L mutant); experiment: Selectivity index, ratio of Ki for human DHFR expressed in Escherichia coli BL21 to Ki for Plasmodium falciparum DHFR N51I/C59R/S108N/I164L mutant expressed in Escherichia coli BL21; type: toxicity; conditions: read-out: Ratio Ki
[9] = Therapeutic index, ratio of IC50 for African green monkey Vero cells to IC50 for Plasmodium falciparum V1/S harboring DHFR N51I/C59R/S108N/I164L mutant; type: toxicity; conditions: read-out: Ratio IC50
[10] = Inhibition of Plasmodium falciparum DHFR […] mutant expressed in Escherichia coli BL21 using DHF as substrate by spectrophotometric analysis
[11] = Therapeutic index, ratio of IC50 for African green monkey Vero cells to IC50 for Plasmodium falciparum TM4/8.2; type: toxicity; conditions: against Plasmodium falciparum TM4/8.2, read-out: Ratio IC50
[12] = tested on: Plasmodium falciparum; experiment: Antimalarial activity against Plasmodium falciparum T9/94 RC17 harboring DHFR A16V/S108T mutant infected in human erythrocytes assessed as reduction in [3H]-hypoxanthine incorporation pretreated for 20 hrs followed by [3H]-hypoxanthine addition measured after 20 hrs by radioactivity method; type: functional, organism-based; conditions: T9/94 RC17, Erythrocyte
[13] = tested on: Plasmodium falciparum; experiment: Antimalarial activity against Plasmodium falciparum CsI-2 harboring DHFR C59R/S108N/I164L mutant infected in human erythrocytes assessed as reduction in [3H]-hypoxanthine incorporation pretreated for 20 hrs followed by [3H]-hypoxanthine addition measured after 20 hrs by radioactivity method; type: functional, organism-based; conditions: CsI-2, Erythrocyte
[14] = tested on: Plasmodium falciparum; experiment: Antimalarial activity against Plasmodium falciparum W2 harboring DHFR N51I/C59R/S108N mutant infected in human erythrocytes assessed as reduction in [3H]-hypoxanthine incorporation pretreated for 20 hrs followed by [3H]-hypoxanthine addition measured after 20 hrs by radioactivity method; type: functional, organism-based; conditions: W2, Erythrocyte
[15] = Inhibition of Plasmodium falciparum DHFR expressed in Escherichia coli BL21 using DHF as substrate by spectrophotometric analysis
[16] = tested on: Plasmodium falciparum; experiment: Antimalarial activity against Plasmodium falciparum TM4/8.2 infected in human erythrocytes assessed as reduction in [3H]-hypoxanthine incorporation pretreated for 20 hrs followed by [3H]-hypoxanthine addition measured after 20 hrs by radioactivity method; type: functional, organism-based
[17] = tested on: Plasmodium falciparum; experiment: Antimalarial activity against Plasmodium falciparum V1/S harboring DHFR N51I/C59R/S108N/I164L mutant infected in human erythrocytes assessed as reduction in [3H]-hypoxanthine incorporation pretreated for 20 hrs followed by [3H]-hypoxanthine addition measured after 20 hrs by radioactivity method; type: functional, organism-based; conditions: Erythrocyte
[18] = Therapeutic index, ratio of IC50 for African green monkey Vero cells to IC50 for Plasmodium falciparum K1CB1 harboring DHFR […] mutant; type: toxicity; conditions: read-out: Ratio IC50
[19] = Inhibition of Plasmodium falciparum DHFR N51I/C59R/S108N mutant expressed in Escherichia coli BL21 using DHF as substrate by spectrophotometric analysis

Structure (SMILES) | IC50 [1] [nM] | Ki [2] [nM] | Ki [3] [nM] | selectivity ratio [4] | Ki [5] [nM] | IC50 [6] [nM] | selectivity ratio [7] | selectivity ratio [8] | selectivity ratio [9] | Ki [10] [nM] | selectivity ratio [11] | IC50 [12] [nM] | IC50 [13] [nM] | IC50 [14] [nM] | Ki [15] [nM] | IC50 [16] [nM] | IC50 [17] [nM] | selectivity ratio [18] | Ki [19] [nM]
CC1(C)N=C(N)N=C(N)N1OCCCOc1ccc(Cl)cc1 | 170 | 1 | 0.9 | 49 | 1.2 | 1.9 | 32 | 29 | 7 | 0.9 | 607 | 0.24 | 3.9 | 2.1 | 0.6 | 0.28 | 23 | 89 | 
Cc1ccc(C)c(NCCCON2C(N)=NC(N)=NC2(C)C)c1 | > 50000 | 3.8 | 1.5 | 155 | 4.1 | 100 | 113 | 33 | > 143 | 1.1 | > 1920 |  | 310 | 43 | 0.8 | 26 | 350 | > 500 | 1.4
CC1N=C(N)N=C(N)N1OCCCOc1ccc(Cl)cc1 (configuration not stated) | > 50000 | 1.8 | 1.4 | 290 | 1.9 | 29 | 166 | 64 | > 61 | 0.7 | > 1670 |  | 380 | 120 | 0.4 | 30 | 820 | > 1720 | 0.9
CC1(C)N=C(N)N=C(N)N1OCCCOc1ccc(F)cc1Cl | 21400 | 1.2 | 0.9 | 94 | 1.8 | 0.26 | 42 | 31 | 7130 | 0.9 | 629000 | 0.28 | 3.1 | 0.24 | 0.4 | 0.034 | 3 | 82300 | 
CC1N=C(N)N=C(N)N1OCCCOc1ccc(F)cc1Cl (configuration not stated) | > 50000 | 1.3 | 1.6 | 229 | 1.8 | 5.2 | 131 | 70 | > 172 | 0.7 | > 2170 |  | 47 | 33 | 0.4 | 23 | 290 | > 9620 | 0.8
CC1N=C(N)N=C(N)N1OCCCOc1cccc(Cl)c1Cl (configuration not stated) | 5910 | 1.2 | 1.2 | 49 | 1.8 | 5.9 | 33 | 16 | 28 | 0.6 | 4550 |  | 62 | 150 | 0.4 | 1.3 | 210 | 1000 | 0.6
CN(CCCON1C(N)=NC(N)=NC1(C)C)c1ccc(Cl)cc1 | 45000 | 3.4 | 2 | 22 | 3.4 | 49 | 24 | 10 | 107 | 1.4 | 26500 | 3.2 | 170 | 24 | 1.5 | 1.7 | 420 | 918 | 
CC1(C)N=C(N)N=C(N)N1OCCCSc1cccc(Cl)c1 | 3900 | 1 | 0.9 | 34 | 3.4 | 5.5 | 30 | 24 | 51 | 0.8 | 3000 | 2.4 | 42 | 8.1 | 0.7 | 1.3 | 77 | 709 | 
CC1(C)N=C(N)N=C(N)N1OCCCc1ccccc1 | 7100 | 5 | 2.8 | 36 | 3.1 | 22 | 30 | 8 | 79 | 1.3 | 772 |  | 250 | 39 | 1.1 | 9.2 | 90 | 323 | 1.2
CC1(C)N=C(N)N=C(N)N1OCCSc1ccc(Cl)cc1 | 14000 | 3 | 1.8 | 84 | 1.5 | 37 | 32 | 8 | 26 | 0.8 | 4000 |  | 32 | 24 | 0.3 | 3.5 | 540 | 378 | 0.8
CCN(CC)CCCON1C(N)=NC(N)=NC1(C)C | > 50000 | 7.9 | 5.5 | 230 | 9.7 | 32 | 135 | 29 | > 63 | 1.7 | > 2080 |  | 140 | 70 | 1 | 24 | 800 | > 1560 | 2.1
CN(CCCON1C(N)=NC(N)=NC1(C)C)c1ccc(Cl)c(Cl)c1 | 33300 | 3.9 | 2.3 | 30 | 4 | 32 | 39 | 10 | 115 | 1 | 64000 |  | 140 | 28 | 1.3 | 0.52 | 290 | 1040 | 1.5
CC1(C)NC(N)=NC(=N)N1OCCCCOc1ccccc1 | 9800 | 2 | 1.7 | 57 | 3.2 | 33 | 35 | 23 | 45 | 1.3 | 3380 |  | 220 | 46 | 0.8 | 2.9 | 220 | 297 | 1.6
CC1(C)NC(N)=NC(=N)N1OCCc1ccccc1 | 12000 | 17 | 12 | 39 | 7.1 | 39 | 21 | 3 | 17 | 2 | 400 |  | 300 | 240 | 1.1 | 30 | 720 | 308 | 2.9
